The target in the experiment is T1, human GLP-1 receptor (GLP-1R) (Homo sapiens, UniProt P43220).
T1 construct: expressed in transfected cells; host or cells: HEK293 cells or CHO cells
Description: cAMP assay, human GLP-1R cells. It is filed as cell-based. As for the experimental part: Sample dilutions are made in duplicate.
A frozen cryo-vial of cells expressing the receptor of interest is thawed rapidly in a water-bath, transferred to pre-warmed assay buffer and spun at 240×g for 5 minutes. Cells are re-suspended in assay buffer at a batch-dependent optimized concentration (e.g. hGCGR cells at 2×10^5 cells/ml, hGLP-1R and hGIPR cells at 1×10^5 cells/ml).
To this, 5 μL cell suspension is added and the plates incubated at room temperature for 30 minutes.
cAMP levels are measured using a commercially available cAMP dynamic 2 HTRF kit (Cisbio, Cat #62AM4PEJ), following the two step protocol as per manufacturer's recommendations. In brief; anti-cAMP cryptate (donor fluorophore) and cAMP-d2 (acceptor fluorophore) are made up separately by diluting each 1/20 in conjugate & lysis buffer provided in the kit. 5 μL anti-cAMP cryptate is added to wells of the assay plate, and 5 μL cAMP-d2 is added to wells except non-specific binding (NSB) wells, to which conjugate and lysis buffer are added. […] EC50 values of the synthetic peptides determined in cAMP assays are then determined.
Data is transformed to % Delta F as described in the manufacturer's guidelines and analyzed by 4-parameter logistic fit to determine EC50 values. […] To compare the balance of activities at the GLP-1R and GCGR between different peptides and across different conditions, these can be correlated, where the EC50's are related to those of comparator peptides.
A general note: Cyclic AMP is a second messenger, typically raised through Gs and lowered through Gi signalling.

The mark [1] stands for this setting: cAMP activity, mean of n1 and n2, read-out: Mean pM GLP-1R.

Like-named read-outs stand apart in the source and are kept apart here. Numbered stars: 1 amine (or outer) side, 2 acyl side, 3 side chain; on linkers, the order of the positions; unused ones are H or OH. Square brackets hold non-standard residues; d marks the D form. Side chains are listed from the residue outwards. Peptide text beside a SMILES is read from it. * marks the point of attachment. C18 diacid = O=C(O)CCCCCCCCCCCCCCCCC(=O)*; γGlu = O=C(O)[C@H](CCC(=O)[*:2])N[*:1]; Palmitoyl = CCCCCCCCCCCCCCCC(=O)*; αMeF = C[C@](N)(Cc1ccccc1)C(=O)O; αMeK = C[C@](N)(CCCCN)C(=O)O; Lauroyl = CCCCCCCCCCCC(=O)*; αMeS = C[C@](N)(CO)C(=O)O; AEEA = NCCOCCOCC(=O)O; Aib = CC(C)(N)C(=O)O

T1 sequence (P43220 24-463): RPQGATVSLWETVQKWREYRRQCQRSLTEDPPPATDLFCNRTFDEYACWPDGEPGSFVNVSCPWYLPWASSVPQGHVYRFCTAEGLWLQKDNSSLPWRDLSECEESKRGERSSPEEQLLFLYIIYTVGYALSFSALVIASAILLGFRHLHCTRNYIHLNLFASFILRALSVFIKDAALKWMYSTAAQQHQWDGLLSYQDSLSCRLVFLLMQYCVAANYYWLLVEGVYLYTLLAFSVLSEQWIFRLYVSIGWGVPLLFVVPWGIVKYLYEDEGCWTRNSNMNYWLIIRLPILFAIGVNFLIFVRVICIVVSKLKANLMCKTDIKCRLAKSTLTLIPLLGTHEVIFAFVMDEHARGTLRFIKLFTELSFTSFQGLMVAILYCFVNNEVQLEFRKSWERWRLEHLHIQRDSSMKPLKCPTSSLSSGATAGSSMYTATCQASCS

On to `CCCCCCCCCCCCCCCC(=O)N[C@@H](CCC(=O)NCCCC[C@H](NC(=O)[C@](C)(Cc1ccccc1)NC(=O)[C@H](CCC(=O)O)NC(=O)[C@](C)(CCCCN)NC(=O)[C@H](C)NC(=O)[C@H](C)NC(=O)[C@H](CCC(=O)O)NC(=O)CNC(=O)[C@H](CCC(=O)O)NC(=O)[C@H](CC(C)C)NC(=O)[C@](C)(Cc1ccccc1)NC(=O)[C@H](CO)NC(=O)[C@](C)(CO)NC(=O)[C@@H](NC(=O)[C@H](CC(=O)O)NC(=O)[C@H](CO)NC(=O)[C@@H](NC(=O)[C@](C)(Cc1ccccc1)NC(=O)[C@H](CO)NC(=O)CNC(=O)[C@H](CCC(=O)O)NC(=O)C(C)(C)NC(=O)[C@@H](N)Cc1c[nH]cn1)[C@@H](C)O)C(C)C)C(=O)N[C@@H](C)C(=O)N[C@@](C)(Cc1ccccc1)C(=O)N[C@H](C(=O)N[C@H](C(=O)N[C@@](C)(CCCCN)C(=O)NCC(=O)NCC(N)=O)C(C)C)C(C)C)C(=O)O` [compound 77] (H-H[Aib]EGS[αMeF]TSDV[αMeS]S[αMeF]LEGEAA[αMeK]E[αMeF]K([γGlu-Palmitoyl])A[αMeF]VV[αMeK]GG-NH2; N-terminus assumed), for which the EC50 under setting [1] turned out to be 1860 pM.
As for `CCCCCCCCCCCC(=O)N[C@@H](CCC(=O)NCCOCCOCC(=O)NCCOCCOCC(=O)NCCCC[C@H](NC(=O)CNC(=O)[C@H](CCC(=O)O)NC(=O)[C@H](CC(C)C)NC(=O)[C@H](Cc1ccc(O)cc1)NC(=O)[C@H](CO)NC(=O)[C@H](CO)NC(=O)[C@H](CCCCNC(=O)COCCOCCNC(=O)COCCOCCNC(=O)CC[C@H](NC(=O)CCCCCCCCCCC)C(=O)O)NC(=O)[C@H](CC(=O)O)NC(=O)[C@H](CO)NC(=O)[C@@H](NC(=O)[C@](C)(Cc1ccccc1)NC(=O)[C@H](CO)NC(=O)CNC(=O)[C@H](CCC(=O)O)NC(=O)C(C)(C)NC(=O)[C@@H](N)Cc1c[nH]cn1)[C@@H](C)O)C(=O)N[C@@H](C)C(=O)N[C@@H](C)C(=O)N[C@@](C)(CCCCN)C(=O)N[C@@H](CCC(=O)O)C(=O)N[C@@H](Cc1ccccc1)C(=O)N[C@H](C(=O)N[C@@H](C)C(=O)N[C@@H](CCCCNC(=O)COCCOCCNC(=O)COCCOCCNC(=O)CC[C@H](NC(=O)CCCCCCCCCCC)C(=O)O)C(=O)N[C@H](C(=O)N[C@H](C(=O)N[C@@H](CCC(=O)O)C(=O)NCC(=O)NCC(N)=O)C(C)C)C(C)C)[C@@H](C)CC)C(=O)O` [compound 456] (H-H[Aib]EGS[αMeF]TSDK([AEEA-AEEA-γGlu-Lauroyl])SSYLEGK([AEEA-AEEA-γGlu-Lauroyl])AA[αMeK]EFIAK([AEEA-AEEA-γGlu-Lauroyl])VVEGG-NH2; N-terminus assumed), the EC50 runs as follows: (Table 11, tris-lipidated peptides, mean of n1 and n2, read-out: Primary assay EC50 Mean pM GLP-1R) 170 pM; (Table 11, tris-lipidated peptides, replicate n1, read-out: Primary assay EC50 GLP-1R n1) 116 pM; (Table 11, tris-lipidated peptides, replicate n2, read-out: Primary assay EC50 GLP-1R n2) 224 pM.
As for `CC[C@H](C)[C@H](NC(=O)[C@](C)(Cc1ccccc1)NC(=O)[C@H](CCC(=O)O)NC(=O)[C@](C)(CCCCN)NC(=O)[C@H](C)NC(=O)[C@H](C)NC(=O)[C@H](CCC(=O)O)NC(=O)CNC(=O)[C@H](CCC(=O)O)NC(=O)[C@@H](NC(=O)[C@](C)(Cc1ccccc1)NC(=O)[C@H](CO)NC(=O)[C@H](CO)NC(=O)[C@@H](NC(=O)[C@H](CC(=O)O)NC(=O)[C@H](CO)NC(=O)[C@@H](NC(=O)[C@](C)(Cc1ccccc1)NC(=O)[C@H](CO)NC(=O)CNC(=O)[C@H](CCC(=O)O)NC(=O)C(C)(C)NC(=O)[C@@H](N)Cc1c[nH]cn1)[C@@H](C)O)C(C)C)C(C)C)C(=O)N[C@@H](C)C(=O)N[C@@](C)(Cc1ccccc1)C(=O)N[C@H](C(=O)N[C@H](C(=O)N[C@@](C)(CCCCN)C(=O)NCC(=O)NCC(N)=O)C(C)C)C(C)C` [compound 10] (H-H[Aib]EGS[αMeF]TSDVSS[αMeF]VEGEAA[αMeK]E[αMeF]IA[αMeF]VV[αMeK]GG-NH2), the EC50 under setting [1] was 90 pM.
Regarding `CC[C@H](C)[C@H](NC(=O)[C@H](Cc1ccccc1)NC(=O)[C@H](CCC(=O)O)NC(=O)[C@H](CCCCN)NC(=O)[C@H](C)NC(=O)[C@H](C)NC(=O)[C@H](CCC(N)=O)NC(=O)CNC(=O)[C@H](CCC(=O)O)NC(=O)[C@H](CC(C)C)NC(=O)[C@H](Cc1ccc(O)cc1)NC(=O)[C@H](CO)NC(=O)C(C)(C)NC(=O)[C@@H](NC(=O)[C@H](CC(=O)O)NC(=O)[C@H](CO)NC(=O)[C@@H](NC(=O)[C@H](Cc1ccccc1)NC(=O)[C@@H](NC(=O)CNC(=O)[C@H](CCC(=O)O)NC(=O)C(C)(C)NC(=O)[C@@H](N)Cc1c[nH]cn1)[C@@H](C)O)[C@@H](C)O)C(C)C)C(=O)N[C@@H](C)C(=O)N[C@@H](Cc1c[nH]c2ccccc12)C(=O)N[C@@H](CC(C)C)C(=O)N[C@H](C(=O)N[C@@H](CCCCN)C(=O)NCC(=O)N[C@@H](CCCNC(=N)N)C(N)=O)C(C)C` [compound 22] (H-H[Aib]EGTFTSDV[Aib]SYLEGQAAKEFIAWLVKGR-NH2; N-terminus assumed), the EC50 under setting [1] turned out to be 118 pM.
As to `CC[C@H](C)[C@H](NC(=O)[C@](C)(Cc1ccccc1)NC(=O)[C@H](CCC(=O)O)NC(=O)[C@](C)(CCCCN)NC(=O)[C@H](C)NC(=O)[C@H](C)NC(=O)[C@H](CCCCNC(=O)COCCOCCNC(=O)COCCOCCNC(=O)CC[C@H](NC(=O)CCCCCCCCCCCCCCCCC(=O)O)C(=O)O)NC(=O)CNC(=O)[C@H](CCC(=O)O)NC(=O)[C@H](CC(C)C)NC(=O)[C@](C)(Cc1ccccc1)NC(=O)[C@H](CO)NC(=O)[C@](C)(CO)NC(=O)[C@@H](NC(=O)[C@H](CC(=O)O)NC(=O)[C@H](CO)NC(=O)[C@@H](NC(=O)[C@](C)(Cc1ccccc1)NC(=O)[C@H](CO)NC(=O)CNC(=O)[C@H](CCC(=O)O)NC(=O)C(C)(C)NC(=O)[C@@H](N)Cc1c[nH]cn1)[C@@H](C)O)C(C)C)C(=O)N[C@@H](C)C(=O)N[C@@](C)(Cc1ccccc1)C(=O)N[C@H](C(=O)N[C@H](C(=O)N[C@@](C)(CCCCN)C(=O)NCC(=O)NCC(N)=O)C(C)C)C(C)C` [compound 112] (H-H[Aib]EGS[αMeF]TSDV[αMeS]S[αMeF]LEGK([AEEA-AEEA-γGlu-C18 diacid])AA[αMeK]E[αMeF]IA[αMeF]VV[αMeK]GG-NH2; N-terminus assumed), the EC50 under setting [1] is 6 pM.
As for `CCCCCCCCCCCCCCCC(=O)N[C@@H](CCC(=O)NCCCC[C@H](NC(=O)[C@](C)(Cc1ccccc1)NC(=O)[C@H](C)NC(=O)[C@@H](NC(=O)[C@](C)(Cc1ccccc1)NC(=O)[C@H](CCC(=O)O)NC(=O)[C@](C)(CCCCN)NC(=O)[C@H](C)NC(=O)[C@H](C)NC(=O)[C@H](CCC(=O)O)NC(=O)CNC(=O)[C@H](CCC(=O)O)NC(=O)[C@H](CC(C)C)NC(=O)[C@](C)(Cc1ccccc1)NC(=O)[C@H](CO)NC(=O)[C@](C)(CO)NC(=O)[C@@H](NC(=O)[C@H](CC(=O)O)NC(=O)[C@H](CO)NC(=O)[C@@H](NC(=O)[C@](C)(Cc1ccccc1)NC(=O)[C@H](CO)NC(=O)CNC(=O)[C@H](CCC(=O)O)NC(=O)C(C)(C)NC(=O)[C@@H](N)Cc1c[nH]cn1)[C@@H](C)O)C(C)C)[C@@H](C)CC)C(=O)N[C@H](C(=O)N[C@@](C)(CCCCN)C(=O)NCC(=O)NCC(N)=O)C(C)C)C(=O)O` [compound 74] (H-H[Aib]EGS[αMeF]TSDV[αMeS]S[αMeF]LEGEAA[αMeK]E[αMeF]IA[αMeF]K([γGlu-Palmitoyl])V[αMeK]GG-NH2; N-terminus assumed), the EC50 under setting [1] was found to be 2.1 pM.
As for `CC[C@H](C)[C@H](NC(=O)[C@](C)(Cc1ccccc1)NC(=O)[C@H](CCC(=O)O)NC(=O)[C@](C)(CCCCN)NC(=O)[C@H](C)NC(=O)[C@H](C)NC(=O)[C@H](CCC(=O)O)NC(=O)CNC(=O)[C@H](CCC(=O)O)NC(=O)[C@H](CC(C)C)NC(=O)[C@H](CCCCNC(=O)COCCOCCNC(=O)COCCOCCNC(=O)CC[C@H](NC(=O)CCCCCCCCCCCCCCCCC(=O)O)C(=O)O)NC(=O)[C@H](CO)NC(=O)[C@](C)(CO)NC(=O)[C@@H](NC(=O)[C@H](CC(=O)O)NC(=O)[C@H](CO)NC(=O)[C@@H](NC(=O)[C@](C)(Cc1ccccc1)NC(=O)[C@H](CO)NC(=O)CNC(=O)[C@H](CCC(=O)O)NC(=O)C(C)(C)NC(=O)[C@@H](N)Cc1c[nH]cn1)[C@@H](C)O)C(C)C)C(=O)N[C@@H](C)C(=O)N[C@@](C)(Cc1ccccc1)C(=O)N[C@H](C(=O)N[C@H](C(=O)N[C@@](C)(CCCCN)C(=O)NCC(=O)NCC(N)=O)C(C)C)C(C)C` [compound 116], the EC50 reads like this: under setting [1], 9 pM; (cAMP activity, second determination (n2), read-out: Primary assay EC50 GLP-1R n2) 9.12 pM.
Turning to `CC[C@H](C)[C@H](NC(=O)[C@](C)(Cc1ccccc1)NC(=O)[C@H](CCC(=O)O)NC(=O)[C@H](CCCCNC(=O)CC[C@H](NC(=O)CC[C@H](NC(=O)CC[C@H](NC(=O)CCCCCCCCCCCCCCCCC(=O)O)C(=O)O)C(=O)O)C(=O)O)NC(=O)[C@H](C)NC(=O)[C@H](C)NC(=O)[C@H](CCC(=O)O)NC(=O)CNC(=O)[C@H](CCC(=O)O)NC(=O)[C@H](CC(C)C)NC(=O)[C@](C)(Cc1ccccc1)NC(=O)[C@H](CO)NC(=O)[C@](C)(CO)NC(=O)[C@@H](NC(=O)[C@H](CC(=O)O)NC(=O)[C@H](CO)NC(=O)[C@@H](NC(=O)[C@](C)(Cc1ccccc1)NC(=O)[C@H](CO)NC(=O)CNC(=O)[C@H](CCC(=O)O)NC(=O)C(C)(C)NC(=O)[C@@H](N)Cc1c[nH]cn1)[C@@H](C)O)C(C)C)C(=O)N[C@@H](C)C(=O)N[C@@](C)(Cc1ccccc1)C(=O)N[C@H](C(=O)N[C@H](C(=O)N[C@@](C)(CCCCN)C(=O)NCC(=O)NCC(N)=O)C(C)C)C(C)C` [compound 157], the EC50 under setting [1] came to 227 pM.

Source of the values: patent US20210221866A1, “PROTEASE-RESISTANT LIPIDATED GLP-1 ANALOGS” (MEDIMMUNE LIMITED, priority 2015, published 2021).
